Data: publication PMC10214534, “Enzymatic Fluoromethylation Enabled by the S-Adenosylmethionine Analog Te-Adenosyl-L-(fluoromethyl)homotellurocysteine” (ACS Central Science, 2023)

Key:
Assay type in all cases: biochemical
CFA synthase = target: T1, CFA synthase (Escherichia coli, UniProt P0A9H7); experiment: turnover, LC-MS/MS and […]-NMR; conditions: fluoromethyl donor; co-substrate dOPG
T1 construct: construct only in supplement

TPMT [1] = target: T2, TPMT (Homo sapiens, UniProt P51580); experiment: fluoromethyl transfer kinetics; conditions: fluoromethyl donor; thiol co-substrate as in Table 1
T2 construct: construct only in supplement
T2 sequence (P51580 1-245): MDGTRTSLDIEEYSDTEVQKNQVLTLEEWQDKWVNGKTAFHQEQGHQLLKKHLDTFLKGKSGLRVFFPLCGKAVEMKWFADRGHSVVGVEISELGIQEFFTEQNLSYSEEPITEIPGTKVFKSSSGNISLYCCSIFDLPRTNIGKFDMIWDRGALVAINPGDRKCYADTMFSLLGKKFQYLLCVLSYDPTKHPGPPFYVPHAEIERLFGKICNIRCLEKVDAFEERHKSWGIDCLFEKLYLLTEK

TPMT [2] = target: T2, TPMT; experiment: methyl transfer kinetics; conditions: methyl donor; thiol co-substrate as in Table 1

T1 sequence (P0A9H7 2-382): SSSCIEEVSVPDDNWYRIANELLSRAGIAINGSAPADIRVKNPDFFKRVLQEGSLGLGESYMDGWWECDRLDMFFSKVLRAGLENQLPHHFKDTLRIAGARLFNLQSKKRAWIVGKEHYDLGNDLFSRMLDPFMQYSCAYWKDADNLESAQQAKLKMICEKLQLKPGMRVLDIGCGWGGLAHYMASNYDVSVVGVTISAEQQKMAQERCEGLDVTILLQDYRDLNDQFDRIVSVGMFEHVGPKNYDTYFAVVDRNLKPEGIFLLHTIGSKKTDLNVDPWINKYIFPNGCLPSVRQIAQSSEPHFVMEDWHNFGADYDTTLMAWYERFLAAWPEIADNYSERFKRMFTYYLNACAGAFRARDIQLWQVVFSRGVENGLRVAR

SMILES	turnover, LC-MS/MS and 19F-NMR (CFA synthase)	Km (TPMT [1])	Km (TPMT [2])
Nc1ncnc2c1ncn2[C@@H]1O[C@H](C[Te+](CF)CC[C@H](N)C(=O)O)[C@@H](O)[C@H]1O [FMeTeSAM]	E. coli CFA synthase can use FMeTeSAM to catalyze cyclopropanation	the Km for FMeTeSAM is nearly the same as that for SAM	–
C[S+](CC[C@H](N)C(=O)O)C[C@H]1O[C@@H](n2cnc3c(N)ncnc32)[C@H](O)[C@@H]1O (stereo partly drawn) [SAM]	–	–	the Km for FMeTeSAM is nearly the same as that for SAM
